Measurements from PubChem BioAssay (NCI).
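Protocol summary: plate cells (96-well), add compound at 5 concentrations, incubate 48 h, interpolate endpoints linearly. At the GI50, growth is halved. TGI: concentration producing complete growth inhibition.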

Assays:
Assay in all cases: inhibition of tumour cell growth, NCI panel, 48 h
[1] = tested on: A498 renal
[2] = tested on: PC-3 prostate
[3] = tested on: SNB-75 CNS
[4] = tested on: NCI/ADR-RES ovarian
[5] = tested on: DU-145 prostate
[6] = tested on: COLO 205 colon
[7] = tested on: OVCAR-5 ovarian
[8] = tested on: HT29 colon
[9] = tested on: SK-MEL-2 melanoma
[10] = tested on: NCI-H460 lung
[11] = tested on: OVCAR-4 ovarian
[12] = tested on: NCI-H23 lung
[13] = tested on: U251 CNS
[14] = tested on: HCT-116 colon
[15] = tested on: SK-OV-3 ovarian
[16] = tested on: SN12C renal
[17] = tested on: CCRF-CEM leukemia
[18] = tested on: SF-268 CNS
[19] = tested on: M14 melanoma
[20] = tested on: TK-10 renal
[21] = tested on: SK-MEL-5 melanoma
[22] = tested on: CAKI-1 renal
[23] = tested on: EKVX NSCLC
[24] = tested on: MCF7 breast
[25] = tested on: SW-620 colon
[26] = tested on: RXF 393 renal
[27] = tested on: HOP-62 NSCLC
[28] = tested on: NCI-H522 lung
[29] = tested on: SNB-19 CNS
[30] = tested on: IGROV1 ovarian
[31] = tested on: ACHN renal
[32] = tested on: LOX IMVI melanoma
[33] = tested on: BT-549 breast
[34] = tested on: MDA-MB-435
[35] = tested on: NCI-H226 lung
[36] = tested on: SF-539 CNS
[37] = tested on: HCT-15 colon
[38] = tested on: OVCAR-3 ovarian
[39] = tested on: UO-31 renal
[40] = tested on: A549 NSCLC
[41] = tested on: T-47D breast
[42] = tested on: SK-MEL-28 melanoma
[43] = tested on: UACC-257 melanoma
[44] = tested on: OVCAR-8 ovarian
[45] = tested on: K-562 leukemia
[46] = tested on: KM12 colon
[47] = tested on: HL-60(TB) leukemia
[48] = tested on: HCC-2998 colon
[49] = tested on: MALME-3M melanoma
[50] = tested on: HS 578T breast
[51] = tested on: MDA-MB-231 breast
[52] = tested on: HOP-92 NSCLC
[53] = tested on: SR leukemia
[54] = tested on: MOLT-4 leukemia
[55] = tested on: 786-0 renal
[56] = tested on: UACC-62 melanoma
[57] = tested on: SF-295 CNS
[58] = tested on: RPMI-8226 leukemia
[59] = tested on: MDA-N

`CCCN1CCCC(c2ccc(Nc3nc(Nc4cc(F)ccc4C(N)=O)c4cc[nH]c4n3)c(OC)c2)C1` (stereo not given) showed a GI50 [1] of 0.779 µM, a TGI [1] of 4.34 µM and a GI50 [2] of 4.17 µM. For the same compound, the TGI [2] was 9.6 µM, the GI50 [3] was 3.14 µM and the TGI [3] was 6.43 µM. For the same compound, the GI50 [4] was 3.57 µM, the TGI [4] was 9.92 µM and the GI50 [5] was 0.802 µM. For the same compound, the TGI [5] was 4.74 µM, the GI50 [6] was 0.015 µM and the TGI [6] was 1.23 µM. For the same compound, the GI50 [7] was 0.556 µM, the TGI [7] was 5.36 µM and the GI50 [8] was 0.0108 µM. The TGI [8] was 3.15 µM, the GI50 [9] was 1.42 µM and the TGI [9] was 5.26 µM. The GI50 [10] was 0.116 µM, the TGI [10] was 2.99 µM and the GI50 [11] was 3.03 µM. The TGI [11] was 6.13 µM, the GI50 [12] was 1.5 µM and the TGI [12] was 5.95 µM. For the same compound, the GI50 [13] was 2.57 µM, the TGI [13] was 5.58 µM and the GI50 [14] was 0.21 µM. It also gave a TGI [14] of 4.38 µM, a GI50 [15] of 2.81 µM and a TGI [15] of 5.83 µM. It also gave a GI50 [16] of 3.19 µM, a TGI [16] of 6.71 µM and a GI50 [17] of 1.55 µM. It also gave a TGI [17] of 18.4 µM, a GI50 [18] of 2.84 µM and a TGI [18] of 6.07 µM. For the same compound, the GI50 [19] was 1.02 µM, the TGI [19] was 4.8 µM and the GI50 [20] was 0.622 µM. For the same compound, the TGI [20] was 4.39 µM, the GI50 [21] was 3.03 µM and the TGI [21] was 6.24 µM. It also gave a GI50 [22] of 3.17 µM, a TGI [22] of 8.63 µM and a GI50 [23] of 0.862 µM. For the same compound, the TGI [23] was 5.19 µM, the GI50 [24] was 0.0137 µM and the TGI [24] was 3.58 µM. The GI50 [25] was 0.106 µM, the TGI [25] was 3.66 µM and the GI50 [26] was 0.942 µM. For the same compound, the TGI [26] was 4.48 µM, the GI50 [27] was 2.62 µM and the TGI [27] was 5.58 µM. For the same compound, the GI50 [28] was 2.85 µM, the TGI [28] was 6.01 µM and the GI50 [29] was 3.19 µM. For the same compound, the TGI [29] was 6.45 µM, the GI50 [30] was 1.47 µM and the TGI [30] was 6.12 µM. It also gave a GI50 [31] of 2.92 µM, a TGI [31] of 6.23 µM and a GI50 [32] of 0.588 µM. It also gave a TGI [32] of 5.49 µM, a GI50 [33] of 3.74 µM and a TGI [33] of 7.4 µM. It also gave a GI50 [34] of 1.04 µM, a TGI [34] of 5.39 µM and a GI50 [35] of 3.04 µM. The TGI [35] was 6.68 µM, the GI50 [36] was 2.14 µM and the TGI [36] was 6.05 µM. The GI50 [37] was 0.437 µM, the TGI [37] was 5.47 µM and the GI50 [38] was 2.92 µM. For the same compound, the TGI [38] was 6 µM, the GI50 [39] was 1.27 µM and the TGI [39] was 5.88 µM. It also gave a GI50 [40] of 0.129 µM, a TGI [40] of 4.16 µM and a GI50 [41] of 3.55 µM. It also gave a TGI [41] of 7.62 µM, a GI50 [42] of 3.49 µM and a TGI [42] of 6.93 µM. For the same compound, the GI50 [43] was 0.188 µM, the TGI [43] was 4.54 µM and the GI50 [44] was 2.47 µM. For the same compound, the TGI [44] was 5.92 µM, the GI50 [45] was 0.825 µM and the TGI [45] was 5.59 µM. The GI50 [46] was 2.72 µM, the TGI [46] was 5.86 µM and the GI50 [47] was 0.0156 µM. The TGI [47] was 4.82 µM, the GI50 [48] was 2.58 µM and the TGI [48] was 5.64 µM. It also gave a GI50 [49] of 2.69 µM, a TGI [49] of 6.34 µM and a GI50 [50] of 3.41 µM. The TGI [50] was 12.3 µM, the GI50 [51] was 3.28 µM and the TGI [51] was 7.7 µM. It also gave a GI50 [52] of 0.013 µM, a TGI [52] of 1.39 µM and a GI50 [53] of 0.0112 µM. It also gave a TGI [53] of 7.99 µM, a GI50 [54] of 3.8 µM and a TGI [54] of 11.1 µM. It also gave a GI50 [55] of 2.84 µM, a TGI [55] of 6.29 µM and a GI50 [56] of 3.11 µM. For the same compound, the TGI [56] was 6.31 µM, the GI50 [57] was 3.42 µM and the TGI [57] was 7.16 µM. The GI50 [58] was 3.65 µM and the TGI [58] was 10.8 µM.
With `O=C(O)CN1CCN2CCOCCN(CC1)CCN(CC(=O)O)CC2` the TGI [1] was over 100 µM, the TGI [2] was over 100 µM and the TGI [3] was over 100 µM. For the same compound, the TGI [4] was over 100 µM, the TGI [5] was over 100 µM and the TGI [6] was over 100 µM. It also gave a TGI [7] of over 100 µM, a TGI [8] of over 100 µM and a TGI [9] of over 100 µM. For the same compound, the TGI [10] was over 100 µM, the TGI [11] was over 100 µM and the TGI [12] was over 100 µM. For the same compound, the TGI [13] was over 100 µM, the TGI [14] was over 100 µM and the TGI [15] was over 100 µM. It also gave a TGI [16] of over 100 µM, a TGI [17] of over 100 µM and a TGI [18] of over 100 µM. For the same compound, the TGI [19] was over 100 µM, the TGI [20] was over 100 µM and the TGI [21] was over 100 µM. For the same compound, the TGI [22] was over 100 µM, the TGI [23] was over 100 µM and the TGI [24] was over 100 µM. It also gave a TGI [25] of over 100 µM, a TGI [26] of over 100 µM and a TGI [27] of over 100 µM. The TGI [28] was over 100 µM, the TGI [29] was over 100 µM and the TGI [30] was over 100 µM. The TGI [31] was over 100 µM, the TGI [32] was over 100 µM and the TGI [33] was over 100 µM. The TGI [34] was over 100 µM, the TGI [35] was over 100 µM and the TGI [36] was over 100 µM. For the same compound, the TGI [37] was over 100 µM, the TGI [38] was over 100 µM and the TGI [39] was over 100 µM. The TGI [40] was over 100 µM, the TGI [41] was over 100 µM and the TGI [42] was over 100 µM. It also gave a TGI [43] of over 100 µM, a TGI [44] of over 100 µM and a TGI [45] of over 100 µM. For the same compound, the TGI [46] was over 100 µM, the TGI [47] was over 100 µM and the TGI [48] was over 100 µM. For the same compound, the TGI [49] was over 100 µM, the TGI [50] was over 100 µM and the TGI [51] was over 100 µM. It also gave a TGI [52] of over 100 µM, a TGI [53] of over 100 µM and a TGI [54] of over 100 µM. For the same compound, the TGI [55] was over 100 µM, the TGI [56] was over 100 µM and the TGI [57] was over 100 µM. It also gave a TGI [58] of over 100 µM.
Work on `O=C1OCC2=C1C(c1ccc(Cl)cc1)c1cc3c(cc1O2)OCO3` (stereo not given) yielded a TGI [59] of 3.9 µM, a TGI [1] of over 100 µM and a TGI [2] of over 100 µM. For the same compound, the TGI [3] was over 100 µM, the TGI [4] was over 31.2 µM and the TGI [5] was over 100 µM. For the same compound, the TGI [6] was over 100 µM, the TGI [7] was over 100 µM and the TGI [8] was over 100 µM. For the same compound, the TGI [9] was over 100 µM, the TGI [10] was over 100 µM and the TGI [11] was over 100 µM. The TGI [12] was over 100 µM, the TGI [14] was over 34.6 µM and the TGI [15] was over 100 µM. For the same compound, the TGI [16] was over 100 µM, the TGI [17] was over 100 µM and the TGI [18] was over 100 µM. The TGI [19] was over 100 µM, the TGI [20] was over 100 µM and the TGI [21] was over 100 µM. It also gave a TGI [22] of 10.8 µM, a TGI [23] of over 100 µM and a TGI [24] of over 27.2 µM. For the same compound, the TGI [25] was over 100 µM, the TGI [26] was over 100 µM and the TGI [27] was over 35.4 µM. For the same compound, the TGI [29] was over 100 µM, the TGI [30] was over 100 µM and the TGI [31] was over 100 µM. It also gave a TGI [32] of over 100 µM, a TGI [34] of 5.31 µM and a TGI [35] of over 100 µM. For the same compound, the TGI [36] was over 25.1 µM, the TGI [37] was over 100 µM and the TGI [38] was over 100 µM. The TGI [39] was over 100 µM, the TGI [40] was over 100 µM and the TGI [41] was over 100 µM. It also gave a TGI [42] of over 100 µM, a TGI [43] of over 100 µM and a TGI [44] of over 100 µM. For the same compound, the TGI [45] was over 100 µM, the TGI [46] was over 100 µM and the TGI [47] was 12.8 µM. The TGI [48] was over 100 µM, the TGI [49] was over 100 µM and the TGI [50] was over 72.2 µM. The TGI [51] was over 100 µM, the TGI [52] was over 100 µM and the TGI [53] was over 31.6 µM. The TGI [54] was 46.3 µM, the TGI [55] was over 100 µM and the TGI [56] was over 100 µM. For the same compound, the TGI [57] was over 100 µM and the TGI [58] was over 100 µM.
